Experiments:
Format in all cases: biochemical
[1] = tested on: purified protease of Beauveria sp MTCC 5184; assay: Stability of purified protease in organic solvents at 50° C.; conditions: 25% (v/v) solvent
Text: Following organic solvents were used: acetone, 1-butanol, benzene, chloroform, dimethylsulphoxide, ethanol, hexane, isopropanol and methanol. […] Samples were removed at different time intervals and residual activity was estimated.

[2] = tested on: protease of Beauveria sp MTCC 5184; assay: Effect of metal ions on protease activity; conditions: for Residual Activity (%): 28° C., 30 min; for inhibition: 1 mM
Method: The protease activity has been expressed in terms of tyrosine equivalents. The reaction mixture contained an aliquot of suitably diluted enzyme solution and 10 mg Hammerstein casein in 0.1 M sodium carbonate buffer pH 9.0 in a total volume of 2 ml. After incubation at 50° C. for 10 min, the reaction was terminated by the addition of 3 ml of 5% trichloroacetic acid (acidified with concentrated hydrochloric acid). The precipitate formed was filtered through Whatman No. 1 filter paper after standing for 30 min at room temperature. The absorbance of trichloroacetic acid soluble fraction was measured at 280 nm. Micrograms of tyrosine produced was calculated from a pre-calibrated graph of absorbance at 280 nm against tyrosine concentration and the units are expressed as […] of tyrosine released per minute under assay conditions.
This example illustrates the effect of metal ions on protease activity of Beauveria sp MTCC 5184.

[3] = tested on: protease of Beauveria sp MTCC 5184; assay: Modification of tryptophan of protease with NBS; conditions: 28° C., 30 min
Method: This example illustrates the modification of tryptophan with N-bromosuccinimide (NBS) and its effect on protease activity. […] Protease incubated without NBS served as the control.

[4] = tested on: protease of Beauveria sp MTCC 5184; assay: Substrate protection by casein against inhibition by PMSF, NBS and WRK
Text: The example illustrates the study of substrate protection by casein on inhibition of Beauveria sp MTCC 5184 protease by PMSF, WRK and NBS. […] Increase in casein concentration decreased the inhibition by both the inhibitors indicating substrate protection by casein (Table 11). This indicates the presence of serine, aspartic acid and tryptophan at the active site of protease.

[5] = tested on: protease of Beauveria sp MTCC 5184; assay: Modification of serine residue of protease by PMSF; conditions: 28° C., 30 min
Method: This example illustrates the modification of serine residue of protease by PMSF and its effect on protease activity. […] Protease incubated without PMSF served as the control.

[6] = tested on: protease of Beauveria sp MTCC 5184; assay: Modification of aspartic acid residue of protease by WRK; conditions: 28° C., 30 min
Method: This example illustrates the modification of aspartic acid residue of protease by Woodward's reagent (WRK) and its effect on protease activity. […] Protease incubated without WRK served as the control.

## 1-butanol
[1]; 0 h, pH 7
  Residual Activity (%): 100.00%
[1]; 1 h, pH 7
  Residual Activity (%): 82.07%
[1]; 2 h, pH 7
  Residual Activity (%): 46.38%

## CC(C)=O [Acetone, acetone]
[1]; 0 h, pH 7
  Residual Activity (%): 100.00%
[1]; 1 h, pH 7
  Residual Activity (%): 99.07%
[1]; 2 h, pH 7
  Residual Activity (%): 70.45%
[1]; 2 h, pH 7, listed as acetone
  Residual Activity (%): around 70%

## c1ccccc1 [Benzene, benzene]
[1]; 0 h, pH 7
  Residual Activity (%): 100.00%
[1]; 1 h, pH 7
  Residual Activity (%): 61.85%
[1]; 2 h, pH 7
  Residual Activity (%): 40.66%

## [Ca+2].[Cl-].[Cl-] [Ca^+2]
[2]; 1 mM and 10 mM
  activation of protease activity: no activation
[2]; 1 mM chloride salt
  Residual Activity (%): 92.99%
[2]; 10 mM chloride salt
  Residual Activity (%): 81.75%

## [Cd+2] [Cd^+2]
[2]
  inhibition: 3%
[2]; 1 mM chloride salt
  Residual Activity (%): 96.99%
[2]; 10 mM chloride salt
  Residual Activity (%): 63.50%

## ClC(Cl)Cl [Chloroform, chloroform]
[1]; 0 h, pH 7
  Residual Activity (%): 100.00%
[1]; 1 h, pH 7
  Residual Activity (%): 77.14%
[1]; 2 h, pH 7
  Residual Activity (%): 38.55%

## [Cl-].[Cl-].[Co+2] [Co^+2]
[2]; 1 mM and 10 mM
  inhibitory effect on the protease: no inhibitory effect
[2]; 1 mM chloride salt
  Residual Activity (%): 103.86%
[2]; 10 mM chloride salt
  Residual Activity (%): 112.36%

## [Cl][Cu][Cl] [Cu^+2]
[2]; 1 mM and 10 mM
  inhibitory effect on the protease: no inhibitory effect
[2]; 1 mM chloride salt
  Residual Activity (%): 109.42%
[2]; 10 mM chloride salt
  Residual Activity (%): 100.02%

## CCO [Ethanol, ethanol]
[1]; 0 h, pH 7
  Residual Activity (%): 100.00%
[1]; 1 h, pH 7
  Residual Activity (%): 98.50%
[1]; 2 h, pH 7
  Residual Activity (%): 45.21%

## [Cl][Fe]([Cl])[Cl] [Fe^+3]
[2]; 1 mM chloride salt
  Residual Activity (%): 81.67%
[2]; 10 mM chloride salt
  Residual Activity (%): 82.66%

## CCCCCC [Hexane, hexane]
[1]; 0 h, pH 7
  Residual Activity (%): 100.00%
[1]; 1 h, pH 7
  Residual Activity (%): 76.18%
[1]; 2 h, pH 7
  Residual Activity (%): 29.43%

## [Hg+2] [Hg^+2]
[2]
  inhibition: 10%
[2]; 1 mM chloride salt
  Residual Activity (%): 90.38%
[2]; 10 mM chloride salt
  Residual Activity (%): 63.16%

## CC(C)O [Isopropanol, isopropanol]
[1]; 0 h, pH 7
  Residual Activity (%): 100.00%
[1]; 1 h, pH 7
  Residual Activity (%): 71.26%
[1]; 2 h, pH 7
  Residual Activity (%): 46.16%

## [Cl-].[K+] [K^+1]
[2]; 1 mM chloride salt
  Residual Activity (%): 91.71%
[2]; 10 mM chloride salt
  Residual Activity (%): 87.63%

## [Cl][Mn][Cl] [Mn^+2]
[2]; 1 mM chloride salt
  Residual Activity (%): 101.51%
[2]; 10 mM chloride salt
  Residual Activity (%): 73.98%

## O=C1CCC(=O)N1Br [NBS, N-bromosuccinimide]
[3]; 10 μM purified protease
  concentration at which complete inhibition was observed: 0.06 mM
[3]; NBS 0.01 mM
  Residual Activity (%): 20.39%
[3]; NBS 0.02 mM
  Residual Activity (%): 15.70%
[3]; NBS 0.03 mM
  Residual Activity (%): 12.55%
[3]; NBS 0.04 mM
  Residual Activity (%): 8.93%
[3]; NBS 0.05 mM
  Residual Activity (%): 7.08%
[3]; NBS 0.06 mM
  Residual Activity (%): 0%
[3]; NBS 0.07 mM
  Residual Activity (%): 0%
[3]; NBS 0.08 mM
  Residual Activity (%): 0%
[3]; NBS 0.09 mM
  Residual Activity (%): 0%
[3]; NBS 0.10 mM
  Residual Activity (%): 0%
[4]; 0.01 mM NBS, casein 0 mg
  Inhibition (%): 87.06%
[4]; 0.01 mM NBS, casein 1 mg
  Inhibition (%): 84.85%
[4]; 0.01 mM NBS, casein 2 mg
  Inhibition (%): 69.95%
[4]; 0.01 mM NBS, casein 3 mg
  Inhibition (%): 64.09%
[4]; 0.01 mM NBS, casein 4 mg
  Inhibition (%): 48.93%
[4]; 0.01 mM NBS, casein 5 mg
  Inhibition (%): 43.25%
[4]; 0.01 mM NBS, casein 6 mg
  Inhibition (%): 38.03%
[4]; 0.01 mM NBS, casein 7 mg
  Inhibition (%): 34.06%
[4]; 0.01 mM NBS, casein 8 mg
  Inhibition (%): 24.25%
[4]; 0.01 mM NBS, casein 9 mg
  Inhibition (%): 16.27%
[4]; 0.01 mM NBS, casein 10 mg
  Inhibition (%): 16.28%

## [Cl-].[Na+] [Na^+1]
[2]; 1 mM chloride salt
  Residual Activity (%): 100.94%
[2]; 10 mM chloride salt
  Residual Activity (%): 99.01%

## O=S(=O)(F)Cc1ccccc1 [PMSF, phenylmethylsulfonyl fluoride]
[4]; 0.01 mM PMSF, casein 0 mg
  Inhibition (%): 95.02%
[4]; 0.01 mM PMSF, casein 1 mg
  Inhibition (%): 74.91%
[4]; 0.01 mM PMSF, casein 2 mg
  Inhibition (%): 70.78%
[4]; 0.01 mM PMSF, casein 3 mg
  Inhibition (%): 64.06%
[4]; 0.01 mM PMSF, casein 4 mg
  Inhibition (%): 60.71%
[4]; 0.01 mM PMSF, casein 5 mg
  Inhibition (%): 52.65%
[4]; 0.01 mM PMSF, casein 6 mg
  Inhibition (%): 45.22%
[4]; 0.01 mM PMSF, casein 7 mg
  Inhibition (%): 41.73%
[4]; 0.01 mM PMSF, casein 8 mg
  Inhibition (%): 34.80%
[4]; 0.01 mM PMSF, casein 9 mg
  Inhibition (%): 31.56%
[4]; 0.01 mM PMSF, casein 10 mg
  Inhibition (%): 26.26%
[5]; 10 μM purified protease
  concentration at which complete inhibition was observed: 0.025 mM
[5]; PMSF 0.005 mM
  Residual Activity (%): 45.65%
[5]; PMSF 0.010 mM
  Residual Activity (%): 8.78%
[5]; PMSF 0.015 mM
  Residual Activity (%): 3.76%
[5]; PMSF 0.020 mM
  Residual Activity (%): 1.74%
[5]; PMSF 0.025 mM
  Residual Activity (%): 0%
[5]; PMSF 0.030 mM
  Residual Activity (%): 0%
[5]; PMSF 0.035 mM
  Residual Activity (%): 0%
[5]; PMSF 0.040 mM
  Residual Activity (%): 0%
[5]; PMSF 0.045 mM
  Residual Activity (%): 0%
[5]; PMSF 0.050 mM
  Residual Activity (%): 0%

## CC[n+]1ccc(-c2cccc(S(=O)(=O)[O-])c2)o1 [WRK, Woodward's reagent]
[6]; 10 μM purified protease
  concentration at which complete inhibition was observed: 9 mM
[6]; WRK 1 mM
  Residual Activity (%): 86.08%
[6]; WRK 2 mM
  Residual Activity (%): 75.76%
[6]; WRK 3 mM
  Residual Activity (%): 61.47%
[6]; WRK 4 mM
  Residual Activity (%): 49.05%
[6]; WRK 5 mM
  Residual Activity (%): 34.66%
[6]; WRK 6 mM
  Residual Activity (%): 19.53%
[6]; WRK 7 mM
  Residual Activity (%): 11.69%
[6]; WRK 8 mM
  Residual Activity (%): 6.39%
[6]; WRK 9 mM
  Residual Activity (%): 0%
[6]; WRK 10 mM
  Residual Activity (%): 0%
[4]; 5 mM WRK, casein 0 mg
  Inhibition (%): 75.26%
[4]; 5 mM WRK, casein 1 mg
  Inhibition (%): 66.03%
[4]; 5 mM WRK, casein 2 mg
  Inhibition (%): 59.32%
[4]; 5 mM WRK, casein 3 mg
  Inhibition (%): 53.22%
[4]; 5 mM WRK, casein 4 mg
  Inhibition (%): 45.06%
[4]; 5 mM WRK, casein 5 mg
  Inhibition (%): 40.25%
[4]; 5 mM WRK, casein 6 mg
  Inhibition (%): 31.10%
[4]; 5 mM WRK, casein 7 mg
  Inhibition (%): 26.27%
[4]; 5 mM WRK, casein 8 mg
  Inhibition (%): 19.32%
[4]; 5 mM WRK, casein 9 mg
  Inhibition (%): 12.87%
[4]; 5 mM WRK, casein 10 mg
  Inhibition (%): 8.72%

— patent US8765447B2, “Fungal strain Beauveria sp. MTCC 5184 and a process for the preparation of enzymes therefrom” (Council of Scientific and Industrial Research, priority 2010, dated 2014)
